The subject of the assay is HepG2 tumors. Kind of assay: Anti-tumor efficacy in HepG2-tumor bearing nude mice. To be noted: s.c. HepG2 tumors, i.v. 1 mg/kg dox equivalents every other day from day 2, tumor volume, FIG. 4. Type of assay: in vivo, nu/nu BALB/c nude mice. Here is the method: Nude mice were inoculated s.c. with 4×10^6 HepG2 cells on day 0. On day 2, groups of five mice were injected intravenously with 1 mg/kg dox equivalents of D, DL or DLG. The control group received injections of saline (S). Injections were carried out every other day. The tumor size was measured weekly and the volume calculated using the formula 0.52×L×W×H. Each point represents the mean volume from each group of 5 mice.
Nude mice were inoculated s.c. with 4×10^6 HepG2 cells on day 0. On day 2, groups of five mice were injected intravenously with 1 mg/kg dox equivalents of D, DL or DLG. The control group received injections of saline. Injections were carried out every other day. All mice were sacrificed on day 35. The tumors were removed and weighted. Each column represents the mean ±s.d. (n=5). *p<0.05 statistically significant difference as compared to control (student's t-test).
Nude mice (body weight 20–25 g; 6–8 weeks) were inoculated subcutaneously (s.c.) with a suspension of HepG2 cells (4×10^6/mouse) on Day 0. On Day 2, groups of five mice were injected intravenously with 1 mg/kg equivalents of D, DL or DLG. The Control group received injections of saline. Injections were carried out every other day. Tumor volume was continuously monitored using a Vernier caliper. Measurements were taken weekly and volumes were calculated according to the formula (L×W×H×0.52). […]

This note sets out measurements from patent US7005139B2, “Compositions and methods for the targeted delivery of agents to treat liver cancer” (Hong Kong University of Science and Technology, priority 2001, dated 2006).

In the case of `COc1cccc2c1C(=O)c1c(O)c3c(c(O)c1C2=O)C[C@@](O)(C(=O)CO)C[C@@H]3O[C@H]1C[C@H](N)[C@H](O)[C@H](C)O1.Cl` [D, doxorubicin hydrochloride], the tumor growth inhibition entry is reported as “about 40%”.
